Test results from patent publication US20260355184A1, “SMALL MOLECULE DEGRADERS OF HIV-1 TAT PROTEIN” (priority 2022, published 2026).
Where two headings read alike, the source gives them in different places.

How the values were obtained:
HIV NL4.3 strain = test: HIV infectivity assay, reporter cell line HeLa-CD4-LTR-LacZ, β-Gal activity (Tat protein inhibition); type: cell-based, HIV-1 (NL4.3); settings: Human immunodeficiency virus 1, read-out: Infectivity IC50, HeLa-CD4-LTR-LacZ
Description: (§1) Next, the activity of these leads against HIV infection was evaluated using the reporter cell line HeLa-CD4-LTR-LacZ, which stably expresses the β-galactosidase (β-Gal) gene under the control of the HIV 5′ LTR. The HIV NL4.3 strain was used for these studies and β-Gal activity was measured 72 hrs post infection (FIG. 3A). Cytotoxicity assays using Cell-Titer-Glo were performed in parallel to assess cell viability (FIG. 3A). […] Their anti-HIV activity was further assessed in acute replication of Jurkat T cells with the NL4.3 strain (FIG. 3A). […] These OM10.1 cells contain a single integrated wild-type provirus, while ACH-2 cells contain a single integrated provirus with a TAR mutation C37T, defective Tat-TAR feedback loop (FIG. 3B).

[1] = Cytotoxicity assay, Cell-Titer-Glo, HeLa-CD4-LTR-LacZ; settings: human, hela-cd4-ltr-lacz cells, Infectivity CC50, HeLa-CD4-LTR-LacZ
Description: as §1

O=C(Nc1ccccc1)c1c(NCCCN2CCCC2=O)c2ccccc2[nH]c1=O [compound 46827]
IC50 (HIV NL4.3 strain; analogs of TT-44881 (Table 1)): > 100 µM | CC50 ([1]; analogs of TT-44881 (Table 1)): > 100 µM

O=C(NCCCN1CCCC1=O)c1n[nH]c2ccccc12 [compound 46826]
IC50 (HIV NL4.3 strain; analogs of TT-44881 (Table 1)): > 100 µM | CC50 ([1]; analogs of TT-44881 (Table 1)): > 100 µM

Cc1nccn1CCCNC(=O)C(C)(c1ccccc1)c1ccccc1 [3-52]
IC50 (HIV NL4.3 strain; analogs of TT-44856 (Table 3)): 1 to 10 µM | CC50 ([1]; analogs of TT-44856 (Table 3)): > 100 µM

O=C(NCCCN1CCCC1=O)c1nn(-c2ccccc2)c2c1CCC(O)C2 (stereo not drawn) [GB-12]
IC50 (HIV NL4.3 strain; analogs of TT-44881 (Table 1)): 1 to 10 µM | CC50 ([1]; analogs of TT-44881 (Table 1)): > 100 µM

O=C(NCCCN1CCCC1=O)c1nn(-c2ccccc2)c2ccc(F)cc12 [compound 46820]
IC50 (HIV NL4.3 strain; analogs of TT-44881 (Table 1)): 50 to 100 µM | CC50 ([1]; analogs of TT-44881 (Table 1)): > 100 µM

COc1ccc(C(F)(F)F)cc1-c1noc(Cn2cc(C(F)(F)F)cc(Cl)c2=O)n1 [compound 47111]
IC50 (HIV NL4.3 strain; analogs of TT-44863 (Table 2)): > 100 µM | CC50 ([1]; analogs of TT-44863 (Table 2)): > 100 µM

O=C1CCCN1CCCN(Cc1ccccc1)C(=O)c1nn(-c2ccccc2)c2c1CCC2 [GB-09]
IC50 (HIV NL4.3 strain; analogs of TT-44881 (Table 1)): 25 to 50 µM | CC50 ([1]; analogs of TT-44881 (Table 1)): 25 to 50 µM

CCCCN(CCCN1CCCC1=O)C(=O)c1nn(-c2ccccc2)c2c1CCC2 [GB-07]
IC50 (HIV NL4.3 strain; analogs of TT-44881 (Table 1)): 50 to 100 µM | CC50 ([1]; analogs of TT-44881 (Table 1)): 50 to 100 µM

CC(C(=O)NCCCn1cnc(CNC(=O)OCc2ccccc2)c1)(c1ccccc1)c1ccccc1 [3-64]
IC50 (HIV NL4.3 strain; analogs of TT-44856 (Table 3)): 10 to 30 µM | CC50 ([1]; analogs of TT-44856 (Table 3)): 20 to 50 µM

CC(NC(=O)C(c1ccccc1)c1ccccc1)c1ccc(-n2ccnc2)cc1 (stereo not drawn) [Z27307031]
IC50 (HIV NL4.3 strain; analogs of TT-44856 (Table 3)): 1 to 20 µM | CC50 ([1]; analogs of TT-44856 (Table 3)): > 100 µM

CC(C(=O)Nc1cc(OCc2ccccc2)ccn1)(c1ccccc1)c1ccccc1 [3-44]
IC50 (HIV NL4.3 strain; analogs of TT-44856 (Table 3)): 1 to 30 µM | CC50 ([1]; analogs of TT-44856 (Table 3)): > 100 µM

COc1ccc(NC(=O)Cn2cc(C(F)(F)F)cc(Cl)c2=O)cc1C(F)(F)F [compound 44]
IC50 (HIV NL4.3 strain; analogs of TT-44863 (Table 2)): > 100 µM | CC50 ([1]; analogs of TT-44863 (Table 2)): > 100 µM

COc1ccc(C(F)(F)F)cc1NC(=O)Cn1cc(C)cc(Cl)c1=O [compound 46809]
IC50 (HIV NL4.3 strain; analogs of TT-44863 (Table 2)): 1 to 10 µM | CC50 ([1]; analogs of TT-44863 (Table 2)): > 100 µM

COc1ccc(C(F)(F)F)cc1NC(=O)C(C)n1cc(C(F)(F)F)cc(-c2ccccc2)c1=O (stereo not drawn)
IC50 (HIV NL4.3 strain; analogs of TT-44863 (Table 2)): > 100 µM | CC50 ([1]; analogs of TT-44863 (Table 2)): > 100 µM

O=C(NCCCN1CCCC1=O)c1ccc(=O)n(-c2ccccc2)c1 [compound 47155]
IC50 (HIV NL4.3 strain; analogs of TT-44881 (Table 1)): > 100 µM | CC50 ([1]; analogs of TT-44881 (Table 1)): > 100 µM

O=C(NCCCN1CCCC1=O)c1nnc(-c2ccccc2)c2ccccc12 [compound 46934]
IC50 (HIV NL4.3 strain; analogs of TT-44881 (Table 1)): > 100 µM | CC50 ([1]; analogs of TT-44881 (Table 1)): > 100 µM

CC(C(=O)NCCc1ccc(C(F)(F)F)cc1)(c1ccccc1)c1ccccc1 [3-45]
IC50 (HIV NL4.3 strain; analogs of TT-44856 (Table 3)): 10 to 20 µM | CC50 ([1]; analogs of TT-44856 (Table 3)): 50 to 100 µM

CC(C(=O)NCCc1ccccc1)(c1ccccc1)c1ccccc1 [3-46]
IC50 (HIV NL4.3 strain; analogs of TT-44856 (Table 3)): 50 to 100 µM | CC50 ([1]; analogs of TT-44856 (Table 3)): 20 to 50 µM

COc1ccc(OC(F)(F)F)cc1NC(=O)Cn1cc(C(F)(F)F)cc(Cl)c1=O [compound 45]
IC50 (HIV NL4.3 strain; analogs of TT-44863 (Table 2)): 1 to 10 µM | CC50 ([1]; analogs of TT-44863 (Table 2)): > 100 µM

COc1ccc(C)cc1NC(=O)Cn1cc(C(F)(F)F)cc(Cl)c1=O [compound 46689]
IC50 (HIV NL4.3 strain; analogs of TT-44863 (Table 2)): > 100 µM | CC50 ([1]; analogs of TT-44863 (Table 2)): > 100 µM

O=C(NCCCn1ccnc1)c1nn(-c2ccccc2)c2c1CCC2 [3-63]
IC50 (HIV NL4.3 strain; analogs of TT-44856 (Table 3)): 1 to 10 µM | CC50 ([1]; analogs of TT-44856 (Table 3)): 1 to 10 µM

COCCOc1ccccc1NC(=O)Cn1cccc(Cl)c1=O [compound 46631]
IC50 (HIV NL4.3 strain; analogs of TT-44863 (Table 2)): > 100 µM | CC50 ([1]; analogs of TT-44863 (Table 2)): > 100 µM

COc1ccccc1CNC(=O)Cn1cccc(Cl)c1=O [compound 46747]
IC50 (HIV NL4.3 strain; analogs of TT-44863 (Table 2)): > 100 µM | CC50 ([1]; analogs of TT-44863 (Table 2)): > 100 µM

CCN(CC(=O)Nc1cc(C(F)(F)F)ccc1OCCOC)C(=O)Cc1ccccc1 [compound 45172]
IC50 (HIV NL4.3 strain; analogs of TT-44863 (Table 2)): ~80 µM | CC50 ([1]; analogs of TT-44863 (Table 2)): ~80 µM

O=C(NCCCN1CCCC1=O)c1nn(-c2ccccc2)c2c1CCCCC2 [GB-03]
IC50 (HIV NL4.3 strain; analogs of TT-44881 (Table 1)): > 100 µM | CC50 ([1]; analogs of TT-44881 (Table 1)): > 100 µM

O=C(NCCCN1CCCC1=O)c1cnn(-c2ccccc2)c1 [compound 46935]
IC50 (HIV NL4.3 strain; analogs of TT-44881 (Table 1)): > 100 µM | CC50 ([1]; analogs of TT-44881 (Table 1)): > 100 µM

CC(C)(C)c1cn(-c2ccccc2)nc1C(=O)NCCCN1CCCC1=O [compound 47091]
IC50 (HIV NL4.3 strain; analogs of TT-44881 (Table 1)): > 100 µM | CC50 ([1]; analogs of TT-44881 (Table 1)): 50 to 100 µM

O=C(NCCCN1CCCC1=O)c1c(-c2ccccc2)[nH]c2ccccc2c1=O [compound 46825]
IC50 (HIV NL4.3 strain; analogs of TT-44881 (Table 1)): > 100 µM | CC50 ([1]; analogs of TT-44881 (Table 1)): > 100 µM

CC(C)N(CCCN1CCCC1=O)C(=O)c1nn(-c2ccccc2)c2c1CCC2 [GB-08]
IC50 (HIV NL4.3 strain; analogs of TT-44881 (Table 1)): 30 to 50 µM | CC50 ([1]; analogs of TT-44881 (Table 1)): > 100 µM

CCCC(C(=O)NCCCn1ccnc1)(c1ccccc1)c1ccccc1 [3-57]
IC50 (HIV NL4.3 strain; analogs of TT-44856 (Table 3)): 1 to 10 µM | CC50 ([1]; analogs of TT-44856 (Table 3)): > 100 µM

O=C(NCc1ccc(Cl)cn1)c1cn(-c2ccc(F)cc2)c2ccccc12 [compound 41980]
IC50 (HIV NL4.3 strain; analogs of TT-44881 (Table 1)): > 100 µM | CC50 ([1]; analogs of TT-44881 (Table 1)): 35.6 µM

O=C(O)c1ccc(CNC(=O)c2cn(-c3ccccc3)c3ccccc23)cc1 [compound 41784]
IC50 (HIV NL4.3 strain; analogs of TT-44881 (Table 1)): > 100 µM | CC50 ([1]; analogs of TT-44881 (Table 1)): > 100 µM

O=C(NCc1ccccc1N1CCCCC1)c1cn(-c2ccccc2)c2ccccc12 [compound 41924]
IC50 (HIV NL4.3 strain; analogs of TT-44881 (Table 1)): > 100 µM | CC50 ([1]; analogs of TT-44881 (Table 1)): > 100 µM
